The values that follow come from US12410160B2 (Gilead Sciences, Inc., priority 2021, dated 2025).

Experiment [1] deals with HepG2 cells. Put plainly: F1P Cell-Based Assay (EC50), 13C6-fructose-1-phosphate in HepG2 cells (cell culture medium or 50% human plasma).
Experiment [2] has as its target human KHK-C (Homo sapiens (Human), UniProt P50053). Put plainly: KHK Biochemical Assay (IC50), ADP-Glo, KHK-C. The note with it: average of at least two separate assays. The essentials: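 His-tagged enzyme expressed in BL21 (DE3), Ni-NTA purified. Compounds, serially diluted 1:3 in DMSO, pre-incubated 30 min with enzyme in 50 mM Hepes pH 7.4, 140 mM KCl, 5 mM MgCl2, 0.01% Triton-X, then ATP and fructose added; 4 h at room temperature. ADP formation read by ADP-Glo luminescence.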

Setting [3] is: Homo sapiens, HepG2, HepG2 cells, 50% human plasma, read-out: F1P 50% HP EC50.
[4] abbreviates: Homo sapiens, HepG2, read-out: F1P 10% FBS EC50, HepG2 cells, cell culture medium (10% FBS).
The mark [5] stands for this setting: HepG2 cells, 50% human plasma, read-out: F1P 50% HP EC50.
[6] abbreviates: read-out: F1P 10% FBS EC50, HepG2 cells, cell culture medium (10% FBS).

Where two headings read alike, the source gives them in different places.

Chain of human KHK-C (P50053 whole entry): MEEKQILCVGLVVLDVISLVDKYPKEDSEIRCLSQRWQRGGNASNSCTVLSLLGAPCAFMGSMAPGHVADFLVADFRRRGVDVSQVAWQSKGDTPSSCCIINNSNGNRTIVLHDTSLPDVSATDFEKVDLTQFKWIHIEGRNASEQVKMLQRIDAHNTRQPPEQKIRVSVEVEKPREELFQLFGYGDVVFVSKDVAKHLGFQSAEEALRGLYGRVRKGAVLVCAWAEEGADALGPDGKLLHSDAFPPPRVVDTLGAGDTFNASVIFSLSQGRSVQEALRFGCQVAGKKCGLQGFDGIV

With `C[C@H]1[C@H](O)CN1c1nc(-c2ccc3c(c2)CCCCC3NS(C)(=O)=O)c2c(n1)C(F)(F)CC2` (stereo partly drawn) [Example 547, N-(2-(7,7-difluoro-2-((2S,3R)-3-hydroxy-2-methylazetidin-1-yl)-6,7-dihydro-5H-cyclopenta[d]pyrimidin-4-yl)-6,7,8,9-tetrahydro-5H-benzo[7]annulen-5-yl)methanesulfonamide], the EC50 in experiment [1] (setting [3]) is greater than 0.5 µM; in experiment [1] (setting [4]) it was 0.314 µM. The midpoint of inhibition in experiment [2], the IC50, lay at 0.0336 µM.
For `C[C@H]1[C@H](F)CN1c1nc(-c2ccc3c(c2)O[C@H](CO)CNC3=O)c2c(n1)C(F)(F)CC2` [Example 590, (S)-8-(7,7-difluoro-2-((2S,3R)-3-fluoro-2-methylazetidin-1-yl)-6,7-dihydro-5H-cyclopenta[d]pyrimidin-4-yl)-2-(hydroxymethyl)-3,4-dihydrobenzo[f][1,4]oxazepin-5(2H)-one] the same measures were 0.0232 µM, 0.0091 µM and 0.0018 µM.
For `CCC1CNC(=O)c2ccc(-c3nc(N4C[C@@H](O)[C@@H]4C)nc4c3CCC4(F)F)cc2O1` (stereo partly drawn) [Example 591, 8-(7,7-difluoro-2-((2S,3R)-3-hydroxy-2-methylazetidin-1-yl)-6,7-dihydro-5H-cyclopenta[d]pyrimidin-4-yl)-2-ethyl-3,4-dihydrobenzo[f][1,4]oxazepin-5(2H)-one] the same measures were 0.036 µM, 0.0135 µM and 0.0055 µM.
Take `C[C@H]1[C@H](O)CN1c1nc(-c2ccc3c(c2)OC(CF)CNC3=O)c2c(n1)C(F)(F)CC2` (stereo partly drawn) [Example 594, 8-(7,7-difluoro-2-((2S,3R)-3-hydroxy-2-methylazetidin-1-yl)-6,7-dihydro-5H-cyclopenta[d]pyrimidin-4-yl)-2-(fluoromethyl)-3,4-dihydrobenzo[f][1,4]oxazepin-5(2H)-one]: the EC50 in experiment [1] (setting [3]) amounted to 0.021 µM; in experiment [1] (setting [4]) it was 0.0126 µM. The compound also showed an IC50 in experiment [2] of 0.0033 µM.
For `C[C@H]1CCN1c1nc2c(c(-c3cccc(S(=N)(=O)C(F)F)c3)n1)CCC2` (stereo partly drawn) [Example 602, (difluoromethyl)(imino)(3-(2-((S)-2-methylazetidin-1-yl)-6,7-dihydro-5H-cyclopenta[d]pyrimidin-4-yl)phenyl)-λ^6-sulfanone] the same measures were greater than 0.5 µM, 0.0929 µM and 0.0597 µM.
The matching figures for `C[C@H]1[C@H](O)CN1c1nc(-c2cccc(S(=N)(=O)C(F)F)c2)c2c(n1)C(F)(F)CC2` (stereo partly drawn) [Example 603, (3-(7,7-difluoro-2-((2S,3R)-3-hydroxy-2-methylazetidin-1-yl)-6,7-dihydro-5H-cyclopenta[d]pyrimidin-4-yl)phenyl)(difluoromethyl)(imino)-λ^6-sulfanone]: 0.103 µM, 0.0772 µM and 0.0255 µM.
Turning to `C[C@H]1CCN1c1nc(-c2ccc3c(c2)[C@H](NS(C)(=O)=O)CC3)c2c(n1)C(F)(F)CC2` [Example 608, N—((R)-6-(7,7-difluoro-2-((S)-2-methylazetidin-1-yl)-6,7-dihydro-5H-cyclopenta[d]pyrimidin-4-yl)-2,3-dihydro-1H-inden-1-yl)methanesulfonamide], the EC50 in experiment [1] (setting [3]) was found to be 0.0232 µM; in experiment [1] (setting [4]), 0.0068 µM. Besides, inhibition in experiment [2] was half-maximal at 0.0007 µM (IC50).
As to `C[C@H]1[C@H](O)CN1c1nc(-c2cccc([C@H]3CCS(=O)(=O)N3)c2)c2c(n1)C(F)(F)CC2` [Example 617], the values for the EC50 in experiment [1] (setting [5]) and in experiment [1] (setting [6]) were 0.0307 µM and 0.0102 µM, respectively. In experiment [2], this compound had an IC50 of 0.0035 µM.
For `C[C@H]1[C@H](O)CN1c1nc(-c2cccc(CN3CCCS3(=O)=O)c2)c2c(n1)C(F)(F)CC2` [Example 620], the EC50 in experiment [1] (setting [3]) was found to be 0.113 µM; in experiment [1] (setting [4]), 0.0191 µM. This compound returned an IC50 in experiment [2] of 0.0097 µM.
For `C[C@H]1[C@H](O)CN1c1nc(-c2ccc3c(c2)OC[C@@H]3NS(=O)(=O)C2CC2)c2c(n1)C(F)(F)CC2` [Example 625], the EC50 was found to be 0.0722 µM in experiment [1] (setting [3]) and 0.0176 µM in experiment [1] (setting [4]). Also, inhibition in experiment [2] was half-maximal at 0.0015 µM (IC50).
For `C[C@H]1[C@H](O)CN1c1nc(-c2ccc3c(c2)OC[C@@H]3NS(=O)(=O)c2ccccc2)c2c(n1)C(F)(F)CC2` [Example 626, N-((R)-6-(7,7-difluoro-2-((2S,3R)-3-hydroxy-2-methylazetidin-1-yl)-6,7-dihydro-5H-cyclopenta[d]pyrimidin-4-yl)-2,3-dihydrobenzofuran-3-yl)benzenesulfonamide] the same measures were 0.123 µM, 0.0356 µM and 0.0268 µM.
Turning to `C[C@H]1[C@H](O)CN1c1nc(-c2ccc3c(c2)OC[C@@H]3NS(=O)(=O)CC#N)c2c(n1)C(F)(F)CC2` [Example 627, 1-cyano-N-((R)-6-(7,7-difluoro-2-((2S,3R)-3-hydroxy-2-methylazetidin-1-yl)-6,7-dihydro-5H-cyclopenta[d]pyrimidin-4-yl)-2,3-dihydrobenzofuran-3-yl)methanesulfonamide], the EC50 in experiment [1] (setting [3]) worked out at 0.0041 µM; in experiment [1] (setting [4]), 0.0045 µM. Also, inhibition in experiment [2] was half-maximal at 0.006 µM (IC50).
For `CC1(C)CC(NS(C)(=O)=O)c2ccc(-c3nc(N4CC[C@@H]4CF)nc4c3CCC4(F)F)cc21` (stereo partly drawn) [Example 629, N-(5-(7,7-difluoro-2-((R)-2-(fluoromethyl)azetidin-1-yl)-6,7-dihydro-5H-cyclopenta[d]pyrimidin-4-yl)-3,3-dimethyl-2,3-dihydro-1H-inden-1-yl)methanesulfonamide] the same measures were greater than 0.5 µM, 0.107 µM and 0.0041 µM.
For `C[C@H]1[C@H](O)CN1c1nc(-c2ccc3c(c2)C(C)(C)CC3NS(C)(=O)=O)c2c(n1)C(F)(F)CC2` (stereo partly drawn) [Example 630, N-(5-(7,7-difluoro-2-((2S,3R)-3-hydroxy-2-methylazetidin-1-yl)-6,7-dihydro-5H-cyclopenta[d]pyrimidin-4-yl)-3,3-dimethyl-2,3-dihydro-1H-inden-1-yl)methanesulfonamide] the same measures were greater than 0.5 µM, 0.0688 µM and 0.0024 µM.
The matching figures for `C[C@H]1CCN1c1nc(-c2ccc3c(c2)S(=O)(=O)CC3N)c2c(n1)C(F)(F)CC2` (stereo partly drawn) [Example 656, 6-[7,7-difluoro-2-[(2S)-2-methylazetidin-1-yl]-5,6-dihydrocyclopenta[d]pyrimidin-4-yl]-1,1-dioxo-2,3-dihydrobenzothiophen-3-amine]: 0.0118 µM, 0.0045 µM and 0.0017 µM.
For the compound `C[C@H]1[C@H](O)CN1c1nc(-c2ccc3c(c2)CCNC3)c2c(n1)C(F)(F)CC2` [Example 657, (2S,3R)-1-[7,7-difluoro-4-(1,2,3,4-tetrahydroisoquinolin-6-yl)-5,6-dihydrocyclopenta[d]pyrimidin-2-yl]-2-methyl-azetidin-3-ol], the EC50 in experiment [1] (Homo sapiens, HepG2, read-out: F1P 10% FBS EC50) is 0.0041 µM; in experiment [1] (Homo sapiens, HepG2, read-out: F1P 50% HP EC50) it was 0.0042 µM. For the same compound, half-maximal inhibition in experiment [2] (IC50) required 0.0027 µM.
As to `C[C@H]1[C@H](O)CN1c1nc(-c2ccc([C@@H](N)C(F)F)cc2)c2c(n1)C(F)(F)CC2` [Example 659, (2S,3R)-1-[4-[4-[(1R)-1-amino-2,2-difluoro-ethyl]phenyl]-7,7-difluoro-5,6-dihydrocyclopenta[d]pyrimidin-2-yl]-2-methyl-azetidin-3-ol], the EC50 in experiment [1] (setting [3]) came to 0.054 µM; in experiment [1] (setting [4]), 0.0425 µM. In experiment [2], this compound came in with an IC50 of 0.008 µM.
In the case of `C[C@H]1[C@H](O)CN1c1nc(-c2cccc(N=S(C)(=O)C3CC3)c2)c2c(n1)C(F)(F)CC2` (stereo partly drawn) [Example 667, (2S,3R)-1-[4-[3-[(cyclopropyl-methyl-oxo-λ^6-sulfanylidene)amino]phenyl]-7,7-difluoro-5,6-dihydrocyclopenta[d]pyrimidin-2-yl]-2-methyl-azetidin-3-431], the EC50 in experiment [1] (setting [5]) came to 0.305 µM; in experiment [1] (setting [6]), 0.0613 µM. For the same compound, in experiment [2], the IC50 stood at 0.0423 µM.
As for `C[C@H]1CCN1c1nc(-c2cccc(N=S(C)(=O)C3CC3)c2)c2c(n1)C(F)(F)CC2` (stereo partly drawn) [Example 668, cyclopropyl-[3-[7,7-difluoro-2-[(2S)-2-methylazetidin-1-yl]-5,6-dihydrocyclopenta[d]pyrimidin-4-yl]phenyl]imino-methyl-oxo-λ^6-sulfane], the EC50 in experiment [1] (setting [3]) is greater than 0.5 µM; in experiment [1] (setting [4]), 0.0467 µM. The compound also yielded an IC50 in experiment [2] of 0.0321 µM.
The matching figures for `C[C@H]1CCN1c1nc(-c2cccc(N=S3(=O)CCCC3)c2)c2c(n1)C(F)(F)CC2` [Example 669, 1-[3-[7,7-difluoro-2-[(2S)-2-methylazetidin-1-yl]-5,6-dihydrocyclopenta[d]pyrimidin-4-yl]phenyl]iminothiolane 1-oxide]: 0.429 µM, 0.0286 µM and 0.0162 µM.
The matching figures for `C[C@H]1[C@H](O)CN1c1nc(-c2ccc3c(c2)OC[C@@H]3n2ccnn2)c2c(n1)C(F)(F)CC2` [Example 670]: 0.0314 µM, 0.0253 µM and 0.0243 µM.
For the compound `C[C@H]1[C@H](O)CN1c1nc(-c2cccc(N=S3(=O)CCCC3)c2)c2c(n1)C(F)(F)CC2` [Example 671, (2S,3R)-1-[7,7-difluoro-4-[3-[(1-oxothiolan-1-ylidene)amino]phenyl]-5,6-dihydroeyelopenta[d]pyrimidin-2-yl]-2-methyl-azetidin-3-ol], the EC50 in experiment [1] (setting [3]) came to 0.269 µM; in experiment [1] (setting [4]) it was 0.0351 µM. The compound further had a half-inhibitory concentration (IC50) in experiment [2] of 0.0329 µM.
